Test results as given in ChEMBL document CHEMBL1144379, “The development of monocyclic pyrazolone based cytokine synthesis inhibitors” (Bioorg Med Chem Lett, 2005).
Values after ≈ are worked out from the molar mass of the structure shown.

Tests used:
THP-1 = assay: Inhibitory activity against lipopolysaccharide stimulated TNF-alpha production in THP-1 cells (human monocytic cells); assay type: functional, cell-based
[1] = Metabolism measured as percent loss at 4 hours in rat hepatocytes; assay type: ADME, cell-based, Hepatocyte; settings: read-out: Metabolism
[2] = Aqueous solubility […]; assay type: physicochemical, Rattus norvegicus; settings: aqueous medium
[3] = Bioavailability in rat; assay type: ADME, organism-based; settings: in vivo
[4] = Half life in rats; assay type: ADME; settings: rat, in vivo
[5] = Inhibition of Mitogen-activated protein kinase p38 alpha

| SMILES | IC50 (THP-1) | further results |
| --- | --- | --- |
| O=c1c(-c2ccc(F)cc2)c(-c2ccncc2)[nH]n1-c1ccc(Cl)cc1 | 4.22 µM | – |
| C[C@H](Nc1nccc(-c2c(-c3ccc(F)cc3)c(=O)n(C3CCNCC3)n2C)n1)C(C)(C)O | 1.08 µM | – |
| Cn1c(=O)c(-c2ccc(F)cc2)c(-c2ccnc(Oc3ccccc3)n2)n1C1CCNCC1 | 2.65 µM | – |
| C[C@H](Nc1nccc(-c2c(-c3ccc(F)cc3)c(=O)n(C)n2C)n1)c1ccccn1 | 1.43 µM | – |
| C[C@H](Nc1nccc(-c2c(-c3ccc(F)cc3)c(=O)n(C)n2C)n1)C(C)(C)O | 3.97 µM | – |
| COCCn1c(-c2ccnc(N[C@H](C)COC)n2)c(-c2ccc(F)cc2)c(=O)n1C | 0.924 µM | – |
| Cn1c(-c2ccnc(Oc3ccccc3)n2)c(-c2ccc(F)cc2)c(=O)n1C1CCNCC1 | 1.81 µM | – |
| CCOCn1nc(-c2ccncc2)c(-c2ccc(F)cc2)n1 | 1.07 µM | IC50 [5]: 2.43 µM |
| C[C@H](Nc1nccc(-c2c(-c3ccc(F)cc3)c(=O)n(C)n2C)n1)c1ccncc1 | > 5 µM | – |
| COCCn1c(-c2ccnc(Oc3ccccc3)n2)c(-c2ccc(F)cc2)c(=O)n1C | 1.43 µM | – |
| COC[C@H](C)Nc1nccc(-c2c(-c3ccc(F)cc3)c(=O)n(C)n2C)n1 | 1.43 µM | – |

Stronger by IC50 (THP-1), values ahead:

| IC50 (THP-1) | SMILES | further results |
| --- | --- | --- |
| 0.015 µM | C[C@H](Nc1nccc(-c2c(-c3ccc(F)cc3)c(=O)n(C3CCN(C)CC3)n2C)n1)c1ccccc1 | – |
| 0.647 µM | C[C@H](Nc1nccc(-c2c(-c3ccc(F)cc3)c(=O)n(C)n2C)n1)c1cccnc1 | – |
| 0.309 µM | COCCn1c(-c2ccnc(N[C@@H](C)c3ccccc3)n2)c(-c2ccc(F)cc2)c(=O)n1C | metabolised at 4 h [1]: 30%; solubility [2]: 429 µg/mL (≈ 959 µM) |
| 0.288 µM | Cn1c(-c2ccnc(Oc3ccccc3)n2)c(-c2ccc(F)cc2)c(=O)n1C | – |
| 0.013 µM | C[C@H](Nc1nccc(-c2c(-c3ccc(F)cc3)c(=O)n(C)n2C)n1)c1ccccc1 | bioavailability [3]: 32%; metabolised at 4 h [1]: 44%; solubility [2]: 123 µg/mL (≈ 305 µM); half-life [4]: 1.1 h |
| 0.032 µM | C[C@H](Nc1nccc(-c2c(-c3ccc(F)cc3)c(=O)n(C3CCNCC3)n2C)n1)c1ccccc1.O=C(O)C(F)(F)F | bioavailability [3]: 17%; metabolised at 4 h [1]: 32%; solubility [2]: 650 µg/mL; half-life [4]: 3.2 h |
| 0.261 µM | COC[C@H](C)Nc1nccc(-c2c(-c3ccc(F)cc3)c(=O)n(C3CCNCC3)n2C)n1 | – |
| 0.12 µM | CCn1c(-c2ccnc(N[C@@H](C)c3ccccc3)n2)c(-c2ccc(F)cc2)c(=O)n1CC | – |
| 0.155 µM | C[C@H](Nc1nccc(-c2c(-c3ccc(F)cc3)c(=O)n(C)n2C2CCNCC2)n1)c1ccccc1 | – |
| 0.075 µM | COC[C@@H](C)Nc1nccc(-c2c(-c3ccc(F)cc3)c(=O)n(C)n2C2CCNCC2)n1.O=C(O)C(F)(F)F | bioavailability [3]: 15%; metabolised at 4 h [1]: 0%; solubility [2]: > 30000 µg/mL; half-life [4]: 2.2 h |
| 0.041 µM | CC[C@H](C)Nc1nccc(-c2c(-c3ccc(F)cc3)c(=O)n(C)n2C)n1 | – |
| 0.014 µM | CC(=O)N1CCC(n2c(=O)c(-c3ccc(F)cc3)c(-c3ccnc(N[C@@H](C)c4ccccc4)n3)n2C)CC1 | – |
